Results on 22 compounds are retold here after patent US12428406B2 (PMV Pharmaceuticals, Inc., priority 2019, dated 2025).

The structures appear in SMILES notation.

For the assay, the target named is T1, p53 Y220C (Homo sapiens, UniProt P04637, Y220C).
T1 construct: The recombinant protein was a truncation mutant containing only amino acids 94-312 of p53; made in house; host or cells: E. coli
T1 sequence (P04637 94-312, change not shown): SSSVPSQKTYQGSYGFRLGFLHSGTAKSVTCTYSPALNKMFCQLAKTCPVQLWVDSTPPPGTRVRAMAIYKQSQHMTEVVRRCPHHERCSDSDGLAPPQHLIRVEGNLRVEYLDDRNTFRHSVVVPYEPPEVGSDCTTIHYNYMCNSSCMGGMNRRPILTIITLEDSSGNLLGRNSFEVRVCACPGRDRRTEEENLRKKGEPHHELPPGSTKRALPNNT
In words: In vitro DNA binding activity assay (HTRF / TR-FRET): stabilization of p53 Y220C and increase of its DNA binding activity. It is filed as biochemical. To be noted: recombinant His-tagged p53 Y220C DNA binding domain (aa 94-312), biotin-labeled consensus DNA, incubated at 27° C. or 29° C. for 60 min. A digest of the protocol: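 His-tagged p53 Y220C, E. coli-expressed, binding biotin-labeled consensus DNA measured by HTRF (anti-His-APC, streptavidin-europium). Compounds from 4.5 mM DMSO stocks, 3-fold serial dilutions; incubations at room temperature 15 min, then 20 min. SC150 = concentration raising DNA binding by 50%.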
Take `COc1cc(S(C)(=O)=O)ccc1NCC#Cc1cc2c(N[C@H]3CC[C@H](N4CCCC4)CC3)cccc2n1CC(F)(F)F` [Compound 424A, 2-{3-[(4-methane-sulfonyl-2-methoxy-phenyl)amino]prop-1-yn-1-yl}-N-[(1R,4R)-4-(pyrrolidin-1-yl)cyclohexyl]-1-(2,2,2-trifluoroethyl)-1H-indol-4-amine]: the “SC150 (concentration of the compound required to increase the DNA binding activity by 50%)” value is on record as “+ (+ = 0 μM ≤ SC150 < 0.05 μM)”.
The same measure for `COc1cc(Cl)ccc1NCC#Cc1cc2c(N[C@H]3CC[C@H](N(C)C)CC3)cccc2n1CC(F)(F)F` [Compound 130A, (1R,4R)—N^4-(2-{3-[(4-chloro-2-methoxyphenyl)amino]prop-1-yn-1-yl}-1-(2,2,2-trifluoroethyl)-1H-indol-4-yl)-N^1,N^1-dimethylcyclohexane-1,4-diamine]: “+ (+ = 0 μM ≤ SC150 < 0.05 μM)”; for `CC(O)CN1CCC(Nc2cccc3c2cc(C#CCNc2ccc(S(C)(=O)=O)cc2OCC#N)n3CC(F)(F)F)CC1` (stereo not shown) [Compound 661A, 2-(2-{[3-(4-{[1-(2-hydroxypropyl)piperidin-4-yl]amino}-1-(2,2,2-trifluoroethyl)-1H-indol-2-yl)prop-2-yn-1-yl]amino}-5-methanesulfonylphenoxy)acetonitrile]: “+ (+ = 0 μM ≤ SC150 < 0.05 μM)”; for `CCCn1c(C#CCNc2ccc(S(C)(=O)=O)cc2OC)cc2c(NC3CCN(CC(O)COC)CC3)cccc21` (stereo not shown) [Compound 697A, 1-{4-[(2-{3-[(4-methanesulfonyl-2-methoxyphenyl)amino]prop-1-yn-1-yl}-1-propyl-1H-indol-4-yl)amino]piperidin-1-yl}-3-methoxypropan-2-ol]: “+ (+ = 0 μM ≤ SC150 < 0.05 μM)”.
Turning to `COc1cc(C(N)=O)ccc1NCC#Cc1cc2c(N[C@H]3C[C@@H](C)O[C@@H](C)C3)cccc2n1CC(F)(F)F` [Compound 1029A, 3-methoxy-4-{[3-(4-{[(2R,4R,6S)-2,6-dimethyloxan-4-yl]amino}-1-(2,2,2-trifluoroethyl)-1H-indol-2-yl)prop-2-yn-1-yl]amino}benzamide], the “SC150 (concentration of the compound required to increase the DNA binding activity by 50%)” value is “+++ (+++ = 0.1 μM ≤ SC150 < 0.2 μM)”.
The entry for `CNC(=O)c1ccc(NCC#Cc2cc3c(NC4CCN(C[C@@H](CO)OC)CC4)cccc3n2CC(F)(F)F)c(OC)c1` [Compound 650A, 4-({3-[4-({1-[(2S)-3-hydroxy-2-methoxypropyl]piperidin-4-yl}amino)-1-(2,2,2-trifluoroethyl)-1H-indol-2-yl]prop-2-yn-1-yl}amino)-3-methoxy-N-methylbenzamide] is “+ (+ = 0 μM ≤ SC150 < 0.05 μM)”; for `COc1cc(S(C)(=O)=O)ccc1NCC#Cc1cc2c(N[C@@H]3CCN4CCC[C@@H]4C3)cccc2n1CC(F)(F)F` [Compound 765A, N-[(7R,8aR)-octahydroindolizin-7-yl]-2-{3-[(4-methanesulfonyl-2-methoxyphenyl)amino]prop-1-yn-1-yl}-1-(2,2,2-trifluoroethyl)-1H-indol-4-amine] it is “+ (+ = 0 μM ≤ SC150 < 0.05 μM)”; for `COc1cc(S(=O)(=O)NC(C)=O)ccc1NCC#Cc1cc2c(N[C@H]3CC[C@@H](N(C)C)CC3)cccc2n1CC(F)(F)F` [Compound 84A, N-(3-methoxy-4-{[3-(4-{[(1S,4S)-4-(dimethylamino)cyclohexyl]amino}-1-(2,2,2-trifluoroethyl)-1H-indol-2-yl)prop-2-yn-1-yl]amino}benzenesulfonyl)acetamide] it is “++ (++ = 0.05 μM ≤ SC150 < 0.1 μM)”.
The same measure for `COc1cc(S(N)(=O)=O)ccc1NCC#Cc1cc2c(NC3CCN(CC(C)OC(=O)C(C)C)CC3)cccc2n1CC(F)(F)F` (stereo not shown) [Compound 598A, 1-{4-[(2-{3-[(2-methoxy-4-sulfamoylphenyl)amino]prop-1-yn-1-yl}-1-(2,2,2-trifluoroethyl)-1H-indol-4-yl)amino]piperidin-1-yl}propan-2-yl 2-methylpropanoate]: “+ (+ = 0 μM ≤ SC150 < 0.05 μM)”.
The same measure for `COc1cc(S(C)(=O)=O)ccc1NCC#Cc1cc2c(N[C@H]3CCN(CC(N)=O)C[C@H]3F)cccc2n1CC(F)(F)F` (racemic) [Compound 811A, rac-2-[(3R,4S)-3-fluoro-4-[(2-{3-[(4-methanesulfonyl-2-methoxyphenyl)amino]prop-1-yn-1-yl}-1-(2,2,2-trifluoroethyl)-1H-indol-4-yl)amino]piperidin-1-yl]acetamide]: “+ (+ = 0 μM ≤ SC150 < 0.05 μM)”; for `CCOc1cc(C(N)=O)ccc1NCC#Cc1cc2c(N[C@@H]3CCN(C)C[C@@H]3F)cccc2n1CC(F)(F)F` [Compound 1059A, 3-ethoxy-4-{[3-(4-{[(3S,4R)-3-fluoro-1-methylpiperidin-4-yl]amino}-1-(2,2,2-trifluoroethyl)-1H-indol-2-yl)prop-2-yn-1-yl]amino}benzamide]: “+ (+ = 0 μM ≤ SC150 < 0.05 μM)”.
Consider `COc1cc(S(=O)(=O)NC(C)=O)ccc1NCC#Cc1cc2c(NC3CCN(CC4COC(=O)O4)CC3)cccc2n1CC(F)(F)F` (stereo not shown) [Compound 761A, N-[3-methoxy-4-({3-[4-({1-[(2-oxo-1,3-dioxolan-4-yl)methyl]piperidin-4-yl}amino)-1-(2,2,2-trifluoroethyl)-1H-indol-2-yl]prop-2-yn-1-yl}amino)benzenesulfonyl]acetamide], for which the “SC150 (concentration of the compound required to increase the DNA binding activity by 50%)” value is “+ (+ = 0 μM ≤ SC150 < 0.05 μM)”.
The entry for `COCC(O)CN1CCC(Nc2cccc3c2cc(C#CCOc2ccc(S(C)(=O)=O)cc2N)n3CC(F)(F)F)CC1` (stereo not shown) [Compound 646A, 1-[4-((2-[3-(2-amino-4-methanesulfonylphenoxy)prop-1-yn-1-yl]-1-(2,2,2-trifluoroethyl)-1H-indol-4-yl}amino)piperidin-1-yl]-3-methoxypropan-2-ol] is “+ (+ = 0 μM ≤ SC150 < 0.05 μM)”.
The entry for `COc1cc(S(C)(=O)=O)ccc1NCC#Cc1cc2c(N[C@@H]3CCN(C)C[C@H]3F)cccc2n1CC(F)(F)F` (racemic) [Compound 769A, (rac)-N-((3R,4R)-3-fluoro-1-methylpiperidin-4-yl)-2-(3-((2-methoxy-4-(methylsulfonyl)phenyl)amino)prop-1-yn-1-yl)-1-(2,2,2-trifluoroethyl)-1H-indol-4-amine] is “+ (+ = 0 μM ≤ SC150 < 0.05 μM)”.
The same measure for `COCC(=O)N1CCC(Nc2cccc3c2cc(C#CCNc2ccc(S(C)(=O)=O)cc2OC)n3CC(F)(F)F)CC1` [Compound 741A, 1-{4-[(2-{3-[(4-methanesulfonyl-2-methoxyphenyl)amino]prop-1-yn-1-yl}-1-(2,2,2-trifluoroethyl)-1H-indol-4-yl)amino]piperidin-1-yl}-2-methoxyethan-1-one]: “+ (+ = 0 μM ≤ SC150 < 0.05 μM)”; for `COc1cc(S(C)(=O)=O)ccc1NCC#Cc1cc2c(NC(C)=O)cccc2n1CC(F)(F)F` [Compound 5A, N-(2-{3-[(4-methanesulfonyl-2-methoxyphenyl)amino]prop-1-yn-1-yl}-1-(2,2,2-trifluoroethyl)-1H-indol-4-yl)acetamide]: “++++ (++++ = 0.2 μM ≤ SC150 < 1 μM)”.
On to `COc1cc(C(N)=O)ccc1NCC#Cc1cc2c(NC(=O)N3CCN(C)CC3)cccc2n1CC(F)(F)F` [Compound 9A, N-(2-{3-[(4-carbamoyl-2-methoxyphenyl)amino]prop-1-yn-1-yl}-1-(2,2,2-trifluoroethyl)-1H-indol-4-yl)-4-methylpiperazine-1-carboxamide], for which the “SC150 (concentration of the compound required to increase the DNA binding activity by 50%)” value is recorded as “++++ (++++ = 0.2 μM ≤ SC150 < 1 μM)”.
Turning to `COc1cc(S(=O)(=O)N(CCO)CCO)ccc1NCC#Cc1cc2c(NC3CCOCC3)cccc2n1CC(F)(F)F` [Compound 1007A, N,N-bis(2-hydroxyethyl)-3-methoxy-4-[(3-{4-[(oxan-4-yl)amino]-1-(2,2,2-trifluoroethyl)-1H-indol-2-yl}prop-2-yn-1-yl)amino]benzene-1-sulfonamide], the “SC150 (concentration of the compound required to increase the DNA binding activity by 50%)” value was “+ (+ = 0 μM ≤ SC150 < 0.05 μM)”.
The same measure for `CNC(=O)c1ccc(NCC#Cc2cc3c(N[C@H]4CC[C@H](C#N)CC4)cccc3n2CC(F)(F)F)c(OC)c1` [Compound 34A, 3-methoxy-N-methyl-4-{[3-(4-{[(1R,4R)-4-cyanocyclohexyl]amino}-1-(2,2,2-trifluoroethyl)-1H-indol-2-yl)prop-2-yn-1-yl]amino}benzamide]: “+ (+ = 0 μM ≤ SC150 < 0.05 μM)”; for `CCC(=O)Oc1cc(S(C)(=O)=O)ccc1NCC#Cc1cc2c(NC3CCOCC3)cccc2n1CC(F)(F)F` [Compound 1014A, 5-methanesulfonyl-2-[(3-{4-[(oxan-4-yl)amino]-1-(2,2,2-trifluoroethyl)-1H-indol-2-yl}prop-2-yn-1-yl)amino]phenyl propanoate]: “+ (+ = 0 μM ≤ SC150 < 0.05 μM)”.
The entry for `COc1cc(S(=O)(=O)NC2CCOCC2)ccc1NCC#Cc1cc2c(N[C@H]3CC[C@H](N(C)C)CC3)cccc2n1CC(F)(F)F` [Compound 49A, 3-methoxy-N-(oxan-4-yl)-4-{[3-(4-{[(1R,4R)-4-(dimethylamino)cyclohexyl]amino}-1-(2,2,2-trifluoroethyl)-1H-indol-2-yl)prop-2-yn-1-yl]amino}benzene-1-sulfonamide] is “+ (+ = 0 μM ≤ SC150 < 0.05 μM)”; for `COc1cc(S(C)(=O)=O)ccc1NCC#Cc1cc2c(NC3CC4CCC(C3)N4C)cccc2n1CC(F)(F)F` (stereo not shown) [Compound 990A, 2-{3-[(4-methanesulfonyl-2-methoxyphenyl)amino]prop-1-yn-1-yl}-N-{8-methyl-8-azabicyclo[3.2.1]octan-3-yl}-1-(2,2,2-trifluoroethyl)-1H-indol-4-amine] it is “+ (+ = 0 μM ≤ SC150 < 0.05 μM)”.
